Measurements as given in patent US11175204B1, “7-hydroxycoumarin-based cell-tracking reagents” (LIFE TECHNOLOGIES CORPORATION, priority 2009, dated 2021).

System: Human peripheral blood mononuclear cells
Assay: Cell proliferation tracking by dye dilution, flow cytometry (Biological Application Example 1)
Format: cell-based
Conditions: 1 μM staining; for loss of fluorescence over 24 hours: initial 24 hours after staining; for fluorescence histogram from stimulated cells / fluorescence intensity and coefficient of variation from unstimulated cells: six days after staining
Method: Human peripheral blood mononuclear cells were isolated from whole blood using a Ficoll density gradient, then washed and resuspended in phosphate buffered saline (DPBS) at a concentration of 10^6/mL. The general procedure used is as follows: • 1. Dilute 8 mL of whole blood into 8 mL of 1×PBS and mix well. • 2. Add 6 mL Ficoll-Paque Plus to a 15-mL centrifuge tube, then layer 8 mL diluted whole blood on top. • 3. Centrifuge 30 min at 400 g, then carefully remove the lymphocyte layer. • 4. Resuspend cells in 25 mL DPBS buffer in a 50-mL conical tube. • 5. Spin tube for 5 min at 200 g, pour off supernatant and resuspend in 25 mL DPBS. • 6. Repeat wash step and resuspend in 300 μL of Isolation Buffer. • 7. Count cells on cellometer; adjust cell concentration to 10^6 cells/mL
Compound 2, Compound 6, Compound 7, and Carboxyfluorescein Diacetate Succinimidyl ester (CFSE) were each dissolved in anhydrous dimethylsulfoxide to a concentration of 1 mM. Aliquots, 4-mL, of cells were then stained with 4 μL of Compound 2, Compound 6, Compound 7, or CFSE for final staining concentrations of 1 μM. Cells were incubated with agitation at room temperature for 20 minutes. Then 2 mL of heat-inactivated Fetal Bovine Serum (FBS) were added, followed by 5 more minutes of incubation. Cells were washed twice with DPBS+10% FBS and resuspended in 4 mL of OpTmizer T-Cell Expansion Buffer (GIBCO) containing 2 mM L-glutamine, and 100,000 units penicillin and 100 mg streptomycin per liter. Aliquots (1-mL) of cells stained with Compound 2, Compound 6, Compound 7, or CFSE, and a 1-ml aliquot of unstained cells were then dispensed into a 24-well polystyrene plate and incubated at 37° C. and 5% CO2 for 24 hours. One of the following four stimulus conditions were then applied individually to the cells: i) 200 ng anti-CD3 (2 μL), incubated on ice for 30 min, then transferred to culture plate and add 100 ng iL-2 per mL of culture media, ii) 5 μg/mL Concanavalin A (5 μL of a 1 mg/mL solution), iii) 75 μL CD3/CD28 T cell expander beads, or iv) no stimulus. The cells were then incubated for 72 additional hours at 37° C. and 5% CO2. Aliquots (500-μL) of cells from each treatment were analyzed immediately following staining, and at 24 hours and six days after staining.
Aliquots (500 μL) of cells were washed and resuspended in PBS, stained with mouse anti-human CD3 or CD8 R-phycoerythrin primary antibody conjugates for 15 minutes, then washed and stained with SYTOX® Red Dead Cell Stain for 5 minutes. Cells were then run through the Becton Dickinson (BD) LSRII Flow Cytometer. Fluorescence was collected using three lasers: the 405 nm excitation laser with 450/50 bandpass emission filter, the 488 nm excitation laser with 585/42 bandpass emission filter, and the 633 nm excitation laser with 660/20 bandpass emission filter. A gating strategy was employed to limit analysis to only the cells of interest. Cells were gated first on SYTOX® Red Dead Cell Stain negative (live) cells, then on R-phycoerythrin positive cells (CD3+ or CD8+ positive). […] CountBright™ Absolute Counting Beads were evaluated in each fluorescence histogram prior to each run to account for day-to-day instrument variations.

| Molecule | loss of fluorescence over 24 hours | fluorescence histogram from stimulated cells | fluorescence intensity and coefficient of variation from unstimulated cells |
| --- | --- | --- | --- |
| CC(=O)Oc1cc2oc(=O)c(C(=O)ON3C(=O)CCC3=O)cc2cc1Cl [Compound 2] | very little loss of fluorescence | distinct peaks corresponding to each generation of cells | little change from initial staining |
| CC(=O)Oc1cc2oc(=O)c(C(=O)N3CCC(C(=O)ON4C(=O)CCC4=O)CC3)cc2cc1Cl [Compound 6] | very little loss of fluorescence | distinct peaks corresponding to each generation of cells | little change from initial staining |
| CC(=O)OCOc1cc2oc(=O)c(C(=O)N3CCC(C(=O)ON4C(=O)CCC4=O)CC3)cc2cc1Cl [Compound 7] | very little loss of fluorescence | distinct peaks corresponding to each generation of cells | little change from initial staining |
| Carboxyfluorescein Diacetate Succinimidyl ester [CFSE, reference compound] | moderate fluorescence loss | distinct peaks corresponding to each generation of cells | little change from initial staining |
